Laboratory results taken from US11802120B2, “Fused cyclic urea derivatives as CRHR2 antagonist” (RaQualia Pharma Inc., priority 2018, dated 2023).

Legend:
Assay type in all cases: cell-based
CRHR2 = target: T1, CRHR2 (Homo sapiens, UniProt Q13324); assay: CRHR2 antagonistic activity (inhibitory activity against CRHR2)
T1 sequence (Q13324 1-411): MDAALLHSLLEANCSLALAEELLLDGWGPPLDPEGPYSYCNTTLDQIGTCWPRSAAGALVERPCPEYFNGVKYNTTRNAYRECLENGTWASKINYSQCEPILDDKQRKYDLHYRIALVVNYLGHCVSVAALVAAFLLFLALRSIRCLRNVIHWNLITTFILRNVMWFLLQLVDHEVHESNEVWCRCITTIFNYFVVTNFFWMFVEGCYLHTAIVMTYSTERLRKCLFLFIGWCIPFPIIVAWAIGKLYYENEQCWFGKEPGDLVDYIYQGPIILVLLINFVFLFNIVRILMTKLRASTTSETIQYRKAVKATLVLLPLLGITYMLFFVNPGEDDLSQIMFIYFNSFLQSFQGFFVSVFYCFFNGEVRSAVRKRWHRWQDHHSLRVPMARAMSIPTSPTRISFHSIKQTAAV

human CRHR2-alpha = target: T2, human CRHR2-alpha (Homo sapiens, UniProt Q13324); assay: cAMP functional assay for human CRHR2 (LANCE Ultra cAMP, TR-FRET); settings: CHO-K1 cells expressing human CRHR2-alpha, agonist human urocortin2 at EC80, cAMP; read-out: IC50 against CRHR2
T2 sequence (Q13324 1-411): T1 sequence (Q13324 1-411)
Method in brief: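 Antagonism measured in CHO-K1 cells stably expressing the receptor, serum-starved 7 h then cryopreserved. Thawed cells in HBSS buffer with 0.1% BSA, 0.5 mM IBMX, 5 mM Hepes pH 7.4 were preincubated with compound 30 min at 25° C, then stimulated 30 min with EC80 agonist: urocortin2 for CRHR2, CRF for CRHR1.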

human CRHR1-beta = target: T3, human CRHR1-beta (Homo sapiens, UniProt P34998); assay: cAMP functional assay for human CRHR1 (LANCE Ultra cAMP, TR-FRET); settings: CHO-K1 cells expressing human CRHR1-beta, agonist CRF at EC80, cAMP; read-out: IC50 against CRHR1
T3 sequence (P34998 24-444 isoform P34998-1 limits assumed): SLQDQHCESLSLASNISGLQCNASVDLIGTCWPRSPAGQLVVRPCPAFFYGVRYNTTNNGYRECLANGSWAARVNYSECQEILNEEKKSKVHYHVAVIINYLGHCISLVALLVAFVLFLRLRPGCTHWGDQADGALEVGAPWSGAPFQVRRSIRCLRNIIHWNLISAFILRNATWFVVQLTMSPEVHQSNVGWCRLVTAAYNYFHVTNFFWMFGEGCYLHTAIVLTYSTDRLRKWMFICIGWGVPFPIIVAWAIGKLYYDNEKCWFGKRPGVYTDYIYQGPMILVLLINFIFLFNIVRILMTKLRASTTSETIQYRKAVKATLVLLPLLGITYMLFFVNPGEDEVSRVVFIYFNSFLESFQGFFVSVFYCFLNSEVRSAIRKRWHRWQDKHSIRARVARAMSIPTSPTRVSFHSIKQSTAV
Experimental: cAMP functional assay for human CRHR1 and CRHR2
The ability of the compounds of this invention to inhibit either CRHR2 or CRHR1 is assessed by 3′,5′-cyclic adenosine monophosphate (cAMP) production in cells using the LANCE Ultra cAMP assay kit (ParkinElmer), which are designed based on the homogeneous time-resolved fluorescence resonance energy transfer (TR-FRET) immunoassay.
CHO-K1 (Chinese hamster ovary) cells stably expressing either human CRHR2-alpha (DiscoveRX, Cat. 95-0048C2) or human CRHR1-beta (DiscoveRX, Cat. 95-0047C2) are grown in HAM's F12 media supplemented with 10% fetal bovine serum (FBS), 100 units/mL penicillin, 100 microg/mL hygromycin and 0.5 microg/mL geneticin at 37° C. in 5% CO2 humidified incubator to 80% confluence. After 7 hours starvation treatment in culture media containing 0.1% FBS, the cells are washed with Hanks balanced salt solution (HBSS) and cryopreserved.
For cAMP assay, frozen cells are thawed and washed with HBSS, followed by resuspended in assay buffer (HBSS containing 0.1% bovine serum albumin, 0.5 mM isobutylmethylxanthine and 5 mM Hepes, pH 7.4) at the appropriate concentration for the assay. The cell suspensions are plated on 384-well microplates (Greiner Bio-One) at a density of 4,000 cells per well. After preincubating the cells with various concentrations of the compounds for 30 min at 25° C., an assay buffer containing EC80 concentration of each agonist is added and the cells are incubated for 30 min at 25° C. Human urocortin2 (Peptide Institute) and CRF (Peptide Institute) are used as agonists for CRHR2 and CRHR1, respectively. For the termination of assay, europium-labeled cAMP tracer and ULight (registered trademark) dye labeled cAMP antibodies, both prepared with Lance-Ultra cAMP detection reagent (Perkin Elmer) are added in the plate and incubate for 60 min at 25° C. After incubation, TR-FRET signal is detected by EnVision plate reader (PerkinElmer). The IC50 values for compounds are calculated from dose-response curves by fitting the percent inhibition using XLfit (ID Business Solutions).

Row | IC50 (CRHR2) | IC50 (human CRHR2-alpha) | IC50 (human CRHR1-beta) | Structure (SMILES)
1 |  | < 300 nM | < 1000 nM | CC(=O)c1ccc(-n2c(=O)n(C[C@H]3CC[C@H](NC(=O)c4cc(Cl)cnc4C)CC3)c3ccccc32)cc1 [Example 18, N((1r,4r)-4-((3-(4-acetylphenyl)-2-oxo-2,3-dihydro-1H-benzo[d]imidazol-1-yl)methyl)cyclohexyl)-5-chloro-2-methylnicotinamide]
2 |  | < 300 nM | < 1000 nM | Cc1ccc(-n2c(=O)n(C[C@H]3CC[C@H](NC(=O)c4cc(Cl)cnc4C)CC3)c3ccccc32)cc1 [Example 25, 5-chloro-2-methyl-N-((1r,4r)-4-((2-oxo-3-(p-tolyl)-2,3-dihydro-1H-benzo[d]imidazol-1-yl)methyl)cyclohexyl)nicotinamide]
3 |  | < 300 nM | < 1000 nM | COc1ccc(-n2c(=O)n(C[C@H]3CC[C@H](NC(=O)c4cc(Cl)cnc4C)CC3)c3ccccc32)cc1 [Example 27, 5-chloro-N-((1r,4r)-4-((3-(4-methoxyphenyl)-2-oxo-2,3-dihydro-1H-benzo[d]imidazol-1-yl)methyl)cyclohexyl)-2-methylnicotinamide]
4 |  | < 300 nM | < 1000 nM | COc1cc(-n2c(=O)n(C[C@H]3CC[C@H](NC(=O)c4cc(Cl)cnc4C)CC3)c3ccccc32)ccn1 [Example 45, 5-chloro-N-((1r,4r)-4-((3-(2-methoxypyridin-4-yl)-2-oxo-2,3-dihydro-1H-benzo[d]imidazol-1-yl)methyl)cyclohexyl)-2-methylnicotinamide]
5 |  | < 300 nM | < 1000 nM | Cc1ncc(Cl)cc1C(=O)N[C@H]1CC[C@H](Cn2c(=O)n(-c3ccc(OCCO)nc3)c3ccccc32)CC1 [Example 50, 5-chloro-N-((1r,4r)-4-((3-(6-(2-hydroxyethoxy)pyridin-3-yl)-2-oxo-2,3-dihydro-1H-benzo[d]imidazol-1-yl)methyl)cyclohexyl)-2-methylnicotinamide]
6 |  | < 300 nM | < 1000 nM | Cc1ncc(Cl)cc1C(=O)N[C@H]1CC[C@H](Cn2c(=O)n(-c3ccc(C(N)=O)nc3)c3ccccc32)CC1 [Example 62, 5-(3-(((1r,4r)-4-(5-chloro-2-methylnicotinamido)cyclohexyl)methyl)-2-oxo-2,3-dihydro-1H-benzo[d]imidazol-1-yl)picolinamide]
7 |  | < 300 nM | < 1000 nM | CNC(=O)c1ccc(-n2c(=O)n(C[C@H]3CC[C@H](NC(=O)c4cc(Cl)cnc4C)CC3)c3ccccc32)cn1 [Example 63, 5-(3-(((1r,4r)-4-(5-chloro-2-methylnicotinamido)cyclohexyl)methyl)-2-oxo-2,3-dihydro-1H-benzo[d]imidazol-1-yl)-N-methylpicolinamide]
8 |  | < 300 nM | < 1000 nM | Cc1ncc(Cl)cc1C(=O)N[C@H]1CC[C@H](Cn2c(=O)n(-c3ccc(N(C)CCO)nc3)c3ccccc32)CC1 [Example 64, 5-chloro-N-((1r,4r)-4-((3-(6-((2-hydroxyethyl)(methyl)amino)pyridin-3-yl)-2-oxo-2,3-dihydro-1H-benzo[d]imidazol-1-yl)methyl)cyclohexyl)-2-methylnicotinamide]
9 |  | < 300 nM | < 1000 nM | CNc1ccc(-n2c(=O)n(C[C@H]3CC[C@H](NC(=O)c4cc(Cl)cnc4C)CC3)c3ccccc32)cn1 [Example 91, 5-chloro-2-methyl-N-((1r,4r)-4-((3-(6-(methylamino)pyridin-3-yl)-2-oxo-2,3-dihydro-1H-benzo[d]imidazol-1-yl)methyl)cyclohexyl)nicotinamide]
10 |  | < 300 nM | < 1000 nM | CCNc1ccc(-n2c(=O)n(C[C@H]3CC[C@H](NC(=O)c4cc(Cl)cnc4C)CC3)c3ccccc32)cn1 [Example 92, 5-chloro-N-((1r,4r)-4-((3-(6-(ethylamino)pyridin-3-yl)-2-oxo-2,3-dihydro-1H-benzo [d]imidazol-1-yl)methyl)cyclohexyl)-2-methylnico-tinamide]
11 |  | < 300 nM | < 1000 nM | Cc1ncc(Cl)cc1C(=O)N[C@H]1CC[C@H](Cn2c(=O)n(-c3ccc(N(C)CCCO)nc3)c3ccccc32)CC1 [Example 94, 5-chloro-N-((1r,4r)-4-((3-(6-((3-hydroxypropyl)(methyl)amino)pyridin-3-yl)-2-oxo-2,3-dihydro-1H-benzo[d]imidazol-1-yl)methyl)cyclo-hexyl)-2-methylnicotinamide]

Further lines, the compound ahead of its results:

Row | Structure (SMILES) | IC50 (CRHR2) | IC50 (human CRHR2-alpha) | IC50 (human CRHR1-beta)
12 | Cc1ncc(Cl)cc1C(=O)N[C@H]1CC[C@H](Cn2c(=O)n(-c3ccccc3)c3ccccc32)CC1 [Example 1, 5-chloro-2-methyl-N-((1r,4r)-4-((2-oxo-3-phenyl-2,3-dihydro-1H-benzo[d]imidazol-1-yl)methyl)cyclohexyl)nicotinamide] | 390 nM |  | 
13 | Cc1ncc(Cl)cc1C(=O)N[C@H]1CC[C@H](Cn2c(=O)n(Cc3ccccc3)c3ccccc32)CC1 [Example 2, N-((1r,4r)-4-((3-benzyl-2-oxo-2,3-dihydro-1H-benzo[d]imidazol-1-yl)methyl)cyclohexyl)-5-chloro-2-methylnicotinamide] | 180 nM | < 300 nM | 
14 | CCn1c(=O)n(C[C@H]2CC[C@H](NC(=O)c3cc(Cl)cnc3C)CC2)c2ccccc21 [Example 2.46, reference compound] | 3000 nM |  | 
15 | Cc1ncc(Cl)cc1C(=O)N[C@H]1CC[C@H](Cn2c(=O)n(C)c3ccccc32)CC1 [Example 2.50, reference compound] | 13000 nM |  | 
16 | Cc1ccc(-n2c(=O)n(C[C@H]3CC[C@H](NC(=O)c4cc(Cl)cnc4C)CC3)c3ccccc32)c(C)n1 [Example 32, 5-chloro-N-((1r,4r)-4-((3-(2,6-dimethylpyridin-3-yl)-2-oxo-2,3-dihydro-1H-benzo[d]imidazol-1-yl)methyl)cyclohexyl)-2-methylnicotinamide] |  | < 300 nM | < 1000 nM
17 | COc1ccccc1-n1c(=O)n(C[C@H]2CC[C@H](NC(=O)c3cc(Cl)cnc3C)CC2)c2ccccc21 [Example 34, 5-chloro-N-((1r,4r)-4-((3-(2-methoxyphenyl)-2-oxo-2,3-dihydro-1H-benzo[d]imidazol-1-yl)methyl)cyclohexyl)-2-methylnicotinamide] |  | < 300 nM | < 1000 nM
18 | Cc1ncc(Cl)cc1C(=O)N[C@H]1CC[C@H](Cn2c(=O)n(-c3ccc(N(C)C)nn3)c3ccccc32)CC1 [Example 67, 5-chloro-N-((1r,4r)-4-((3-(6-(dimethylamino)pyridazin-3-yl)-2-oxo-2,3-dihydro-1H-benzo[d]imidazol-1-yl)methyl)cyclohexyl)-2-methylnicotinamide] |  | < 300 nM | < 1000 nM
19 | Cc1ncc(Cl)cc1C(=O)N[C@H]1CC[C@H](Cn2c(=O)n(-c3cnc4[nH]ncc4c3)c3ccccc32)CC1 [Example 128, 5-chloro-2-methyl-N-((1r,4r)-4-((2-oxo-3-(1H-pyrazolo[3,4-b]pyridin-5-yl)-2,3-dihydro-1H-benzo[d]imidazol-1-yl)methyl)cyclohexyl)nicotinamide] | 280 nM | < 300 nM | 
20 | Cc1ncc(Cl)cc1C(=O)N[C@H]1CC[C@H](Cn2c(=O)n(C3CCCCC3)c3ccccc32)CC1 [reference compound (A), reference compound] | 3100 nM |  | 
